Test results reported in patent US8258311B2, “Human protein tyrosine phosphatase inhibitors and methods of use” (Aerpio Therapeutics Inc., priority 2006, dated 2012).

Columns and labels:
Format in all cases: in vivo
[1] = Rat hindlimb model: body weight; conditions: mean ± SE, in g (unit assumed)
hindlimb ischemia = experiment: Rat hindlimb model of collateral development: blood flow during treadmill exercise (microspheres); conditions: for Blood Flow During exercise Calf (GPS): mean ± SE
Source text: The Rat hindlimb model is used to evaluate angiogenic properties of novel HPTPb inhibitors. Specifically to determine if there is enhanced blood flow to the collateral dependent region of the leg post ischemia when the animal is in an exercise challenged state. […] An initial surgery is done to create hindlimb ischemia and implant osmotic pumps essentially as previously described with minor alterations. […] Following induction, animals are transferred to a surgical mat and anesthesia is continued via a non-rebreathing circuit. A warming lamp is positioned above the rat and a rectal probe is placed to monitor the animal's body temperature. The groin areas bilaterally are clipped and prepared with alternating Betadine and alcohol scrubs (3×) and a sterile drape is placed over the rat. The left femoral artery is exposed through a skin incision and subsequently ligated in two positions 1 cm apart; distal to the inguinal ligament and proximal to the femoral circumflex artery. The skin is closed using either skin staples or Vetbond. The same procedure is repeated on the right side. […] Prior to implantation, osmotic pumps are filled with VEGF165 solution at a dose of 15 μg/kg/day, and primed overnight inside sterile saline beakers in a water bath (37° C.). Stretched PESO catheters coated with PPG (Poly propylene glycol Aldrich # 20-235-5) are attached using sterile technique and in accordance with manufacture's instructions the afternoon prior to surgery. For pump placement, an incision is made to expose the right jugular vein, an area is tunneled SubQ from the right side of the neck to the back and the pump is placed in the resulting SubQ pocket. The vessel is ligated with 4-0 silk, a cut is made in the vessel just distal to the tie and the catheter from the osmotic pump is threaded down stream (approx 2 cm) and secured with a second tie. The skin is closed in the same manner as above. Two weeks after the ligation surgery the rat underwent a second acute surgery to place indwelling catheters for microsphere measurements. Rats are anesthetized as described above. The animal is clipped, prepped, and EMLA cream is applied to each entry site. First an incision is made longitudinally at the ventral base of the tail using a 10 blade. A tapered PE 50 catheter is inserted approximately 3 cm into the ventral tail artery and anchored into place. The end of the catheter is then wrapped around the tail and tunneled SubQ over the back, exiting between the shoulder blades. Following tail artery cannulation, a midline neck incision is made to expose the left carotid artery for occlusive cannulation. A tapered PE 50 catheter is placed 3 cm into the carotid and the distal end is tunneled SubQ, exiting between the shoulder blades. The neck is closed with either skin stables or Vetbond and EMLA cream is applied. The exit site is closed around the catheters with a purse string suture stitch. The ends of the catheters are cauterized shut and the rat is allowed to recover from anesthesia for at least 4 hours. For blood flow measurements, rats are placed onto the treadmill and the catheters are connected to extension tubing via 22 gage male-male connectors. For microsphere withdrawals and blood pressure measurements, the tail artery catheter is connected to a syringe (coated with tween and heparin-), which is “T” Ed to a withdrawal pump and a pressure transducer. The carotid catheter is used for injecting the microspheres. The rat began running at speed 20 m/min and an elevation of 7°. […] The pump is set to stop at 90 seconds. The […] stopped, the extension lines are replaced and the animal's lines are flushed, and the animal allowed to rest. The syringe and lines are removed from the pump and the reference blood sample is place in a labeled tube for processing. […] At the completion of the second run, the animal is euthanized with 0.3 ml of Buthaneasia. Following euthanasia, tissues are removed, trimmed, weighed, recorded, and placed in marked tubes for processing. […]

[2] = Rat hindlimb model: blood pressure and heart rate; conditions: for Blood Pressure Post-Exercise / Heart Rate Exercise / Heart Rate Post-Exercise / Heart Rate Pre-Exercise / Blood Pressure Exercise / Blood Pressure Pre-Exercise: mean ± SE; for Blood Pressure Pre-Exercise: two weeks after ligation
Source text: An initial surgery is done to create hindlimb ischemia and implant osmotic pumps essentially as previously described with minor alterations. […] Following induction, animals are transferred to a surgical mat and anesthesia is continued via a non-rebreathing circuit. A warming lamp is positioned above the rat and a rectal probe is placed to monitor the animal's body temperature. The groin areas bilaterally are clipped and prepared with alternating Betadine and alcohol scrubs (3×) and a sterile drape is placed over the rat. The left femoral artery is exposed through a skin incision and subsequently ligated in two positions 1 cm apart; distal to the inguinal ligament and proximal to the femoral circumflex artery. The skin is closed using either skin staples or Vetbond. The same procedure is repeated on the right side. […] Stretched PESO catheters coated with PPG (Poly propylene glycol Aldrich # 20-235-5) are attached using sterile technique and in accordance with manufacture's instructions the afternoon prior to surgery. For pump placement, an incision is made to expose the right jugular vein, an area is tunneled SubQ from the right side of the neck to the back and the pump is placed in the resulting SubQ pocket. The vessel is ligated with 4-0 silk, a cut is made in the vessel just distal to the tie and the catheter from the osmotic pump is threaded down stream (approx 2 cm) and secured with a second tie. The skin is closed in the same manner as above.
Two weeks after the ligation surgery the rat underwent a second acute surgery to place indwelling catheters for microsphere measurements. Rats are anesthetized as described above. The animal is clipped, prepped, and EMLA cream is applied to each entry site. First an incision is made longitudinally at the ventral base of the tail using a 10 blade. A tapered PE 50 catheter is inserted approximately 3 cm into the ventral tail artery and anchored into place. The end of the catheter is then wrapped around the tail and tunneled SubQ over the back, exiting between the shoulder blades. Following tail artery cannulation, a midline neck incision is made to expose the left carotid artery for occlusive cannulation. A tapered PE 50 catheter is placed 3 cm into the carotid and the distal end is tunneled SubQ, exiting between the shoulder blades. The neck is closed with either skin stables or Vetbond and EMLA cream is applied. The exit site is closed around the catheters with a purse string suture stitch. The ends of the catheters are cauterized shut and the rat is allowed to recover from anesthesia for at least 4 hours.
For blood flow measurements, rats are placed onto the treadmill and the catheters are connected to extension tubing via 22 gage male-male connectors. For microsphere withdrawals and blood pressure measurements, the tail artery catheter is connected to a syringe (coated with tween and heparin-), which is “T” Ed to a withdrawal pump and a pressure transducer. The carotid catheter is used for injecting the microspheres. The rat began running at speed 20 m/min and an elevation of 7°. One minute into the run the pump is turned on at a rate of 0.5 ml/min, ten seconds later 0.5 ml (1×10^6 spheres/mL) of florescent microspheres are infused into the carotid line followed by a 0.5 ml flush over 30 seconds. The pump is set to stop at 90 seconds. The tmill is stopped, the extension lines are replaced and the animal's lines are flushed, and the animal allowed to rest. The syringe and lines are removed from the pump and the reference blood sample is place in a labeled tube for processing. The withdrawal syringe and extension lines are flushed 3 times with 2% tween, waste is flushed the reference blood tube A new syringe and lines are place on the pump and the procedure is repeated with the animal running at a faster speed, (25 m/min) and a different microsphere color is injected. At the completion of the second run, the animal is euthanized with 0.3 ml of Buthaneasia.

[3] = continuous SubQ infusion High 15 mg/kg/d
[4] = continuous SubQ infusion Low 5 mg/kg/d
[5] = continuous SubQ infusion High 15 mg/kg/d, in mmHg (unit assumed)

Which “Initial Body Wt” value ([1]; High 15 mg/kg/d group) does the source give for `CCc1csc([C@H](Cc2ccc(NS(=O)(=O)O)cc2)NC(=O)[C@H](Cc2ccccc2)NC(=O)OC(C)(C)C)n1` [4-{(S)-2-[(S)-2-(tert-Butoxycarbonylamino)-3-phenylpropanamido]-2-(4-ethylthiazol-2-yl)ethyl}phenylsulfamic acid] here?
The value was 364 ± 4.8.

What about the “Initial Body Wt” value ([1]; Low 5 mg/kg/d group) of the same compound?
Its value is 365 ± 4.8.

What about the “Ending Body Wt” value [1, 3] of the same compound?
The value was 409 ± 5.5.

What about the “Ending Body Wt” value [1, 4] of the same compound?
The value was 413 ± 5.6.

And the “Calf blood flow as compared to vehicle” value (hindlimb ischemia; SubQ continuous infusion, both doses (5 mg/kg/d and 15 mg/kg/d))?
Its value is “significant improvement”.

What about the “Blood Flow During exercise Calf (GPS)” value (hindlimb ischemia; [3]) of the same compound?
The value was 75 ± 1.7 ml/min/100 g.

What about the “Blood Flow During exercise Calf (GPS)” value (hindlimb ischemia; [4]) of the same compound?
Its value is 69 ± 2.0 ml/min/100 g.

What about the “Calf blood flow response relative to VEGF” value (hindlimb ischemia; lower dose (5 mg/kg/d)) of the same compound?
The value was “did not elicit a maximal VEGF response”.

What about the “Blood pressures of the treatment groups” value ([2]; compared with VEGF and/or Vehicle groups) of the same compound?
Its value is “lower than the VEGF and/or Vehicle groups”.

And the “Blood Pressure Post-Exercise” value [2, 3]?
Its value is 133 ± 3.7.

And the “Heart Rate Exercise” value [2, 3]?
Its value is 456 ± 13.0.

And the “Heart Rate Post-Exercise” value [2, 3]?
The value was 462 ± 14.8.

What about the “Heart Rate Pre-Exercise” value [2, 3] of the same compound?
The value was 428 ± 13.5.

And the “Blood Pressure Exercise” value [2, 5]?
The value was 144 ± 4.6.

And the “Blood Pressure Pre-Exercise” value [2, 5]?
The value was 137 ± 4.5.

And the “Blood Pressure Exercise” value [2, 4]?
The value was 142 ± 3.2.

What about the “Heart Rate Exercise” value [2, 4] of the same compound?
Its value is 487 ± 10.1.

And the “Heart Rate Post-Exercise” value [2, 4]?
The value was 465 ± 18.8.

And the “Heart Rate Pre-Exercise” value [2, 4]?
The value was 429 ± 19.8.

And the “Blood Pressure Post-Exercise” value ([2]; continuous SubQ infusion Low 5 mg/kg/d, in mmHg (unit assumed))?
Its value is 135 ± 3.1.

And the “Blood Pressure Pre-Exercise” value [2, 4]?
Its value is 132 ± 3.9.

What does the source list for VEGF?
Blood Flow During exercise Calf (GPS) (hindlimb ischemia; VEGF 15 μg/kg/d): 76 ± 1.1 ml/min/100 g; GPS blood flow over the Vehicle control groups (hindlimb ischemia; VEGF treatment groups): significant improvement
